The test concerns the target Trifunctional purine biosynthetic protein adenosine-3 (Mus musculus) (UniProt Q64737). In words: Compound was evaluated for the inhibition of GAR transformylase isolated from murine lymphoma cell line L5178Y.

What is called Ki is a dissociation constant, usually derived from enzyme kinetics or from competition with a known ligand.

Trifunctional purine biosynthetic protein adenosine-3 (Mus musculus), sequence (Q64737 whole entry, looked up): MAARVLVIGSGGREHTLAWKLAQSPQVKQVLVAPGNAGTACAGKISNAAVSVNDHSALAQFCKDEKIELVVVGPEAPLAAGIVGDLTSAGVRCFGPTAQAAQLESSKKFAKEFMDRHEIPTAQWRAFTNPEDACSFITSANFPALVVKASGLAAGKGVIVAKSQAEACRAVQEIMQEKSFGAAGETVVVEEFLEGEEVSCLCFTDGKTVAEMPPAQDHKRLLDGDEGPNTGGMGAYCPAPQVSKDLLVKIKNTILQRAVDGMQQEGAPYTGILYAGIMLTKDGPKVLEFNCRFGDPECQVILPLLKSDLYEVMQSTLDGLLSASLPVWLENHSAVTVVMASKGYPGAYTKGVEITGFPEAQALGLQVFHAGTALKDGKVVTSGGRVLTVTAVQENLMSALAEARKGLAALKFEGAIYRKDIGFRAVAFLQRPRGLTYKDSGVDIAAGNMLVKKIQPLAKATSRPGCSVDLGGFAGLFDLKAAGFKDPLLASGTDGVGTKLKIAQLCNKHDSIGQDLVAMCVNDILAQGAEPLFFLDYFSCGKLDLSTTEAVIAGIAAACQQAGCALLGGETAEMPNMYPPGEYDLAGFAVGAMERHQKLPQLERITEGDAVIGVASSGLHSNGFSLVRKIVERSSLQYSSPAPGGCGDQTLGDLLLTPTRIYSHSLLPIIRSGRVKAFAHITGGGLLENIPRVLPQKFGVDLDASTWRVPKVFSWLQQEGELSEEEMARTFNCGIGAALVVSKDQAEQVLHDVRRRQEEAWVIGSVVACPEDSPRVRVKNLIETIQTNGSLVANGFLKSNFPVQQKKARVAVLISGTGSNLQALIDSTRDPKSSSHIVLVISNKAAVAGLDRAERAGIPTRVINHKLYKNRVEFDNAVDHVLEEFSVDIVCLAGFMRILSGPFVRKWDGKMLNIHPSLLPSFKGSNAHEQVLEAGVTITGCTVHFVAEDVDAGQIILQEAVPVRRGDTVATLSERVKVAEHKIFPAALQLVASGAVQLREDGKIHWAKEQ

In turn, `Nc1nc2ccc(CNc3ccc(C(=O)NC(CCC(=O)O)C(=O)O)cc3)cc2c(=O)[nH]1` (configuration not stated) gave a Ki of 2000 nM.

As for `CC(=O)N(Cc1ccc2nc(N)[nH]c(=O)c2c1)c1ccc(C(=O)NC(CCC(=O)O)C(=O)O)cc1` (configuration not stated) [2-{4-[Acetyl-(2-amino-4-oxo-3,4-dihydro-quinazolin-6-ylmethyl)-amino]-benzoylamino}-pentanedioic acid], affinity was put at a Ki of 1300 nM.

The values above are taken from BindingDB's records for doi:10.1021/jm00160a056 (1986).
